Test results: patent US10017713B2, “Fluorinated surfactant containing compositions” (3M INNOVATIVE PROPERTIES COMPANY, priority 2014, dated 2018)

Assays:
[1] = Surfactant solubility in hydrofluoroether (HFE) solvents by visual clarity; assay type: physicochemical
Experimental: A series of C4F9SO2N-based fluorochemical surfactants were examined to determine their solubility in various hydrofluoro ether (HFE) solvents, including four segregated HFEs (Novec 7100, 7200, 7300, and 7500 available from 3M Company, St Paul, Minn.), one non-segregated HFE (PF-7600 available from 3M Company), and one HFE-Alcohol blend (Novec 71IPA available from 3M Company). Solubility was determined by preparing mixtures of each surfactant in the solvent at various concentrations and determining solubility at each concentration by visual inspection based on the clarity of the solutions after thorough mixing at room temperature. Surfactants that were not completely soluble at a given concentration produced hazy mixtures, whereas surfactants that were completely soluble at a given concentration produced clear homogeneous solutions with no haze. The highest concentration of each surfactant to give a clear, homogeneous solution in each HFE solvent (expressed as wt % surfactant dissolved in HFE solvent) was taken as the maximum solubility.

[2] = Cleaning performance: % particle removal from heavily soiled CMOS sensors
Experimental: A study was conducted using Novec 7100 and Novec 71IPA base solvents with and without the soluble surfactants identified above to determine the impact of dissolved surfactant on cleaning performance of the fluids. In some cases a single surfactant was employed. In other cases a mixture of two surfactants was employed. In all cases the total concentration of fluorochemical surfactant employed was 0.20 wt % (or 2000 ppm) in the base fluid. Cleaning results were compared to pure Novec fluid controls containing no surfactant. The cleaning trials were performed on heavily soiled CMOS sensors containing a high pixel density. These sensors are known to be extremely difficult to clean such that they are essentially free of (particle contaminants.
A precision solvent cleaning system (SK-04Y-6008 customized cleaning system from YMPT, Thailand) was used to clean the CMOS sensors using the process outlined below.
The cleaning performance of each cleaning fluid composition was judged based on the percentage of particles originally present on the CMOS surface that were removed by the cleaning fluid after completion of the cleaning process. The percentage of particles removed was determined by optical microscopy inspection of the CMOS sensors before and after cleaning.
The original (heavily soiled) CMOS sensor was first inspected using an optical microscope and a series of Pre-Clean images were recorded. The CMOS sensor was then cleaned in the precision cleaning system using the process described above and the proscribed solvent/surfactant combination. After cleaning, the CMOS sensor was inspected again by optical microscopy and a Post-Clean image recorded to determine particle counts remaining on the sensor. In this way, the % removal of particles after cleaning of CMOS sensors was determined.

[3] = Novec 71IPA, room temperature (23° C.)
[4] = Novec 7100, room temperature (23° C.)
[5] = Novec 7200, room temperature (23° C.)
[6] = Novec 7300, room temperature (23° C.)
[7] = Novec 7500, room temperature (23° C.)
[8] = PF-7600, room temperature (23° C.)
[9] = Novec 71IPA, total surfactant 0.20 wt %

C4F9SO2N(CH3)(CH2CH2O)7CH3 [FC-4171 (XI), reference compound]
Max. Solubility [1, 3]: >10 wt % | Max. Solubility [1, 4]: >10 wt % | Max. Solubility [1, 5]: >10 wt % | Max. Solubility [1, 6]: 0.5 wt % | Max. Solubility [1, 7]: 0.1 wt % | Max. Solubility [1, 8]: >10 wt % | % Removal (Percent Particle Removal) [2, 9]: 50-80% | % Removal (Percent Particle Removal) ([2]; Novec 7100, surfactant 0.2 %): 50-80%

O=S(=O)(NCCOCCO)C(F)(F)C(F)(F)C(F)(F)C(F)(F)F [H-FBS(EE) (III), C4F9SO2N(H)CH2CH2OCH2CH2OH]
melting point: 35.7 °C | Max. Solubility [1, 3]: >10 wt % | Max. Solubility [1, 4]: >10 wt % | Max. Solubility [1, 5]: >10 wt % | Max. Solubility [1, 6]: >10 wt % | Max. Solubility [1, 7]: >10 wt % | Max. Solubility [1, 8]: >10 wt % | % Removal (Percent Particle Removal) [2, 9]: 50-80% | % Removal (Percent Particle Removal) ([2]; Novec 7100, surfactant 0.2 %): 50-80%

O=S(=O)(N(CCO)CCO)C(F)(F)C(F)(F)C(F)(F)C(F)(F)F [FBSEE (IX), C4F9SO2N(CH2CH2OH)2]
Max. Solubility [1, 3]: 8.1 wt % | Max. Solubility [1, 4]: 0.06 wt % | Max. Solubility [1, 5]: 0.04 wt % | Max. Solubility [1, 6]: 0.03 wt % | Max. Solubility [1, 8]: 0.6 wt % | % Removal (Percent Particle Removal) [2, 9]: 90-100%

O=S(=O)(NCCO)C(F)(F)C(F)(F)C(F)(F)C(F)(F)F [H-FBSE (X), C4F9SO2NH(CH2CH2OH)]
Max. Solubility [1, 3]: >10 wt % | Max. Solubility [1, 4]: 0.21 wt % | Max. Solubility [1, 5]: 0.16 wt % | Max. Solubility [1, 6]: 0.06 wt % | Max. Solubility [1, 8]: 1.5 wt % | % Removal (Percent Particle Removal) [2, 9]: 50-80%

O=S(=O)(N(CCO)CCOCCO)C(F)(F)C(F)(F)C(F)(F)C(F)(F)F [FBSE(EE) (V), C4F9SO2N(CH2CH2OCH2CH2OH) (CH2CH2OH)]
melting point: 45.1 °C | Max. Solubility [1, 3]: >10 wt % | Max. Solubility [1, 4]: 1.5 wt % | Max. Solubility [1, 5]: 0.8 wt % | Max. Solubility [1, 6]: 0.9 wt % | Max. Solubility [1, 7]: 0.2 wt % | Max. Solubility [1, 8]: >10 wt % | % Removal (Percent Particle Removal) [2, 9]: 90-100% | % Removal (Percent Particle Removal) ([2]; Novec 7100, surfactant 0.2 %): 90-100%

O=S(=O)(N(CCOCCO)CCOCCO)C(F)(F)C(F)(F)C(F)(F)C(F)(F)F [FBS(EE)2 (IV), C4F9SO2N(CH2CH2OCH2CH2OH)2]
Max. Solubility [1, 3]: >10 wt % | Max. Solubility [1, 4]: >10 wt % | Max. Solubility [1, 5]: 0.2-0.5 wt % | Max. Solubility [1, 6]: 0.2-0.3 wt % | Max. Solubility [1, 7]: 0.2 wt % | Max. Solubility [1, 8]: 8-9 wt % | % Removal (Percent Particle Removal) [2, 9]: 50-80% | % Removal (Percent Particle Removal) ([2]; Novec 7100, surfactant 0.2 %): 50-80%

CC(O)CN(CCO)S(=O)(=O)C(F)(F)C(F)(F)C(F)(F)C(F)(F)F (stereo not drawn) [FBSEP (VIII), C4F9SO2N(CH2CH2OH)CH2CH(CH3)OH]
Max. Solubility [1, 3]: >10 wt % | Max. Solubility [1, 4]: 4.0 wt % | Max. Solubility [1, 6]: 1.4 wt % | Max. Solubility [1, 8]: >10 wt % | solubility in HFE solvents ([1]; room temperature): improved solubility
